In article PMC8596125, “Self‐Stabilized Supramolecular Assemblies Constructed from PEGylated Dendritic Peptide Conjugate for Augmenting Tumor Retention and Therapy” (Advanced Science, 2021):

What was measured:
4T1 cells = assay: In vitro cellular uptake (flow cytometry, CLSM); format: cell-based, mouse; settings: 1 µg Ppa mL-1, 2, 6 and 24 h
Description: CCK-8 assay. 5×103 L02 normal cells per well were seeded in a 96-well plate, and then treated by Ppa and SSAs for 24 h incubation or PDP for 24 h and 48 h incubation.
Cell viability of each group was obtained through the same process.
1.3.9 In vitro cellular uptake
To determine cellular uptake and intracellular distribution of SSAs, 4T1 cells (2×104) were seeded on each glass coverslip to allow attachment, and incubated with Ppa and PDPP for 1 h, 3 h and 6 h, while Ppa was used as a control. After nuclear staining by Hoechst 33258, cells were washed by PBS and then observed under a confocal laser scanning microscopy (CLSM) (excitation and emission wavelengths:
630 nm and 678 nm), and images were captured by Leica Confocal Software.
For quantitative characterization of uptake of SSAs by cells, 4T1 cells were seeded in 6 well plates at 1×10^5 cells per well and incubated for 2 h, 6 h and 24 h. After the spent medium was replaced with fresh one, cells were treated by Ppa and SSAs at an equivalent concentration of 1 μg Ppa mL-1 for pre-specified times. Cells were then washed with PBS twice, harvested, and suspended in 100 μL of PBS for flow cytometer analyses. 20,000 events were collected and Flowjo software was used for generating each histogram.
For TEM, 4T1 cells cultured in 6 cm dishes were incubated with Ppa and SSAs. […]

4T1 breast tumors = assay: In vivo / ex vivo fluorescence imaging and tumor retention; parameters: species or system mouse; settings: BALB/c nude mice with 4T1 tumors, i.v. 5 mg Ppa kg-1, in vivo fluorescence imaging up to 14 d, n = 3
From the text: Where AS is the absorbance of the sample, A100 is the absorbance of lysed erythrocytes in H2O (a positive control), and A0 is the absorbance of 0% hemolysis in PBS (a negative control).
1.3.12 Skin photosensitization
The backs of healthy BALB/c mice were depilated 3 days before treatment to ensure that all injures had recovered. The shaved mice were randomly divided into 4 groups: (a) SSAs + laser irradiation; (b) Ppa + laser irradiation; (c) laser irradiation; (d) control (without any treatment). The dose of Ppa was 5 mg Ppa kg-1. Right after administration, the anesthetized mice were irradiated by a 660 nm laser (0.26 W cm-2, […], 108 J cm-2). […] The degree of skin response was examined and scored according to Table S5, and Paraffin sections of the skin were stained with hematoxylin and eosin (H&E) according to the manufacturer's instructions.[3] […]
Plasma was diluted to 50-fold with DMSO for fluorescent measurements using a BioTek plate reader. The pharmacokinetic parameters were calculated using a two-compartment model by WinNonlin 5.2 software.
1.3.14 In vivo fluorescence imaging and biodistribution […]
Fluorescence signals were detected at 1 h, 3 h, 12h, 24 h, 2 d, 3 d, 5 d, 7 d, 9 d, 11 d […]
and 14 d post-intravenous injection by a small-animal in vivo fluorescence imaging system (CRi Maestro EX, USA) with excitation at […]. […]

A549 cells = assay: Cytotoxicity, CCK-8 assay, A549; format: cell-based, human
Description: The CCK-8 assay was used to examine the photodynamic therapeutic effect of SSAs on cell viability against three cell lines. 4×103 4T1 cells per well were seeded in a 96-well plate, and then incubated overnight. The cells were treated with different concentrations of Ppa and SSAs at an equivalent Ppa dose. After 24 h incubation, the medium was replaced with fresh one, and the wells were irradiated using a 660 nm laser with 1 J cm−2. After 24 h, the spent media was replaced and the cell viability was assessed using the CCK-8 reagent. The absorbance at […] of each well was recorded on a microplate reader. Untreated cells were served as a control. Results were presented as the average cell viability by following the manufacturer’s instruction. IC50 values were calculated by using nonlinear regression in software Graphpad Prism7. The cytotoxicity of SSAs and Ppa with or without laser against A549 cell line was also measured through the same procedure. […]

C=Cc1c(C)c2cc3nc(c4c5[nH]c(cc6nc(cc1[nH]2)C(C)=C6CC)c(C)c5C(=O)C4)[C@@H](CCC(=O)O)[C@@H]3C [Ppa, pyropheophorbide a]
Cellular uptake (4T1 cells): better uptake efficiency compared with SSAs | Persistence of the fluorescence signal in tumors (4T1 breast tumors): disappear on day 3 after injection | Cytotoxicity without laser irradiation (A549 cells): much higher cytotoxicity | Cytotoxicity under laser irradiation (A549 cells; 660 nm laser): strong cytotoxicity
